Several values for one entry are separate records, joined by “and”; a condition that tells them apart may be missing. Equal values may be shown once. Read-outs that look alike come from different tables or passages of the source. Marks after values point to notes of the source that are not given here.
Experiments:
[1] = Plasma pharmacokinetics after a single intraperitoneal dose; format: in vivo, male CD1 mice; conditions: for plasma concentrations quantifiable up to: LLOQ 10.38 ng/mL; for concentration at 0.08 hr / concentration at 0.25 hr / concentration at 0.5 hr / concentration at 1 hr / concentration at 2 hr / concentration at 4 hr / concentration at 8 hr / concentration at 24 hr: intraperitoneal
Procedure: The objective of this example was to investigate the plasma pharmacokinetics of UPHH-000171 following a single intraperitoneal dose administration to male CD1 mice at 10 and 50 mg/kg. Eighteen male mice were divided in to two groups with nine animals in each group,
Animals in Group 1 and Group 2 were administered with solution formulation of UPHH-000171 in 5% NMP, 25% Solutol HS-15 and 70% normal saline intraperitoneally at 10 and 50 mg/kg dose, respectively.
The blood samples were collected from set of three mice at each time point in labeled micro centrifuge tube containing K2EDTA solution as anticoagulant at Pre-dose, 0.08, 0.25, 0.5, 1, 2, 4, 8 and 24 hr. Plasma samples were separated by centrifugation of whole blood and stored below −70±10° C. until bioanalysis. All samples were processed for analysis by protein precipitation using acetonitrile and analyzed with fit-for-purpose LC-MS/MS method (LLOQ=10.38 ng/mL). Pharmacokinetic parameters were calculated using the non-compartmental analysis tool of Phoenix WinNonlin® (Version 7.0). Mean pharmacokinetic parameters are summarized below: […]

HDAC8 = molecular target: T1, HDAC8 (Homo sapiens, UniProt Q9BY41); assay: Cellular thermal shift assay (CETSA) for HDAC8 binding; conditions: compared to a control with no compound, FIG. 1
T1 construct: CETSA uses cell lysates heated to different temperatures and quantifies the target protein in the soluble fraction by western blot; endogenous in cells; host or cells: cell lysate
T1 sequence (Q9BY41 1-377): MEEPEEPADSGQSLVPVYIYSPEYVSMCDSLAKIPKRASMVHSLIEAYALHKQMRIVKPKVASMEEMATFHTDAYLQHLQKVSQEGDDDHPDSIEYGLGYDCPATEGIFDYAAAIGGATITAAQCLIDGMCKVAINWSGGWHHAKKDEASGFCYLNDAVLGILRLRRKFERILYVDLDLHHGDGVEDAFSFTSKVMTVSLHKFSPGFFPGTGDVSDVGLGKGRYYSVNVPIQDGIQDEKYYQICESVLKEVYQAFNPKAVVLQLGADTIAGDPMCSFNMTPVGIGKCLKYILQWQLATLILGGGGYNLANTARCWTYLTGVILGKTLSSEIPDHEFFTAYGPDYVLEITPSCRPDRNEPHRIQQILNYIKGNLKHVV
From the text: Cellular thermal shift assay (CETSA) was developed from the same principles of ligand induced thermal stability assays (TSA) of proteins. During TSA, purified proteins are heated in the absence or presence of ligand and then quickly cooled. Proteins that are bound to ligand are more thermally stable than their unbound counterparts, and these “thermal shifts” can be detected by various methods. CETSA uses cell lysates heated to different temperatures and quantifies the target protein in the soluble fraction by western blot. CETSA is a direct measurement of […] through the measurement of the biophysical properties that stabilized the protein-ligand complex under thermal denaturation. The UPHH-00171 compound was tested in the CETSA assay, specifically for HDAC8 binding.

[2] = tested on: gentamicin-induced AKI in zebrafish larvae; assay: Gentamicin-induced AKI in zebrafish larvae (zfAKI assay), Kaplan-Meier survival; format: in vivo; conditions: two different doses, compared to the untreated control
From the text: The gentamicin-induced AKI in zebrafish larvae (zfAKI assay), recapitulates injury and proliferation-based repair in mammalian AKI, but allows for higher throughput analysis of compound efficacy in AKI than mouse models. As fish are soaked in compounds, this assay is not subject to drug delivery and absorption problems that occur in early drug discovery in mice. This assay was used as a primary screening assay with the throughput being increased.

[3] = male, CD1, mouse, 10 mg/kg IP, plasma
[4] = male, CD1, mouse, 50 mg/kg IP, plasma

SMILES: COc1ccc(Cn2ccc3ccc(C(=O)NS(C)(=O)=O)cc32)cc1 [UPHH-000171, 1-(4-methoxybenzyl)-N-(methylsulfonyl)-1H-indole-6-carboxamide]
- Plasma Concentration, individual animal ([1]; 10 mg/kg IP, 0.08 hr): 9871.25 ng/mL and 2877.79 ng/mL and 7508.44 ng/mL
- Plasma Concentration, individual animal ([1]; 10 mg/kg IP, 0.25 hr): 28861.97 ng/mL and 28672.95 ng/mL
- Plasma Concentration, individual animal ([1]; 10 mg/kg IP, 0.5 hr): 41628.22 ng/mL and 36468.73 ng/mL
- Plasma Concentration, individual animal ([1]; 10 mg/kg IP, 1 hr): 49594.52 ng/mL and 19264.72 ng/mL and 34912.30 ng/mL
- Plasma Concentration, individual animal ([1]; 10 mg/kg IP, 2 hr): 46853.15 ng/mL and 43408.40 ng/mL
- Plasma Concentration, individual animal ([1]; 10 mg/kg IP, 4 hr): 47512.89 ng/mL and 73497.85 ng/mL and 31815.34 ng/mL
- Plasma Concentration, individual animal ([1]; 10 mg/kg IP, 8 hr): 20138.85 ng/mL and 29805.54 ng/mL
- Plasma Concentration, individual animal ([1]; 10 mg/kg IP, 24 hr, animal 7 excluded as an outlier): 2930.59^e ng/mL and 131.01 ng/mL and 68.44 ng/mL
- plasma concentrations quantifiable up to ([1]; 10 mg/kg IP): up to 24 hr
- Plasma Concentration, individual animal ([1]; 50 mg/kg IP, 0.08 hr): 59305.08 ng/mL and 90638.28 ng/mL
- Plasma Concentration, individual animal ([1]; 50 mg/kg IP, 0.25 hr): 31701.46 ng/mL and 171000.65 ng/mL and 182938.71 ng/mL
- Plasma Concentration, individual animal ([1]; 50 mg/kg IP, 0.5 hr): 137922.52 ng/mL and 96505.03 ng/mL and 47522.98 ng/mL
- Plasma Concentration, individual animal ([1]; 50 mg/kg IP, 1 hr): 218799.23 ng/mL and 236020.35 ng/mL
- Plasma Concentration, individual animal ([1]; 50 mg/kg IP, 2 hr): 93162.33 ng/mL and 195094.83 ng/mL and 235858.27 ng/mL
- Plasma Concentration, individual animal ([1]; 50 mg/kg IP, 4 hr): 106201.99 ng/mL and 115510.21 ng/mL
- Plasma Concentration, individual animal ([1]; 50 mg/kg IP, 8 hr): 93195.14 ng/mL and 75070.05 ng/mL
- Plasma Concentration, individual animal ([1]; 50 mg/kg IP, 24 hr): 1407.79 ng/mL and 391.49 ng/mL and 1081.42 ng/mL
- plasma concentrations quantifiable up to ([1]; 50 mg/kg IP): up to 24 hr
- dose related increase in plasma exposure (AUClast) ([1]; from 10 mg/kg to 50 mg/kg IP): 3 fold
- concentration at 0.08 hr ([1]; male, CD1, mouse, plasma, 10 mg/kg, 10 mg/kg IP, 0.08 hr, read-out: Plasma Concentration, Mean): 6.75 µg/mL
- concentration at 0.25 hr ([1]; male, CD1, mouse, plasma, 10 mg/kg, 10 mg/kg IP, 0.25 hr, read-out: Plasma Concentration, Mean): 30.2 µg/mL
- concentration at 0.25 hr ([1]; male, CD1, mouse, plasma, 10 mg/kg, 10 mg/kg IP, 0.25 hr, read-out: Plasma Concentration, individual animal): 33 µg/mL
- concentration at 0.5 hr ([1]; male, CD1, mouse, plasma, 10 mg/kg, 10 mg/kg IP, 0.5 hr, read-out: Plasma Concentration, Mean): 41.2 µg/mL
- concentration at 0.5 hr ([1]; male, CD1, mouse, plasma, 10 mg/kg, 10 mg/kg IP, 0.5 hr, read-out: Plasma Concentration, individual animal): 45.6 µg/mL
- concentration at 1 hr ([1]; male, CD1, mouse, plasma, 10 mg/kg, 10 mg/kg IP, 1 hr, read-out: Plasma Concentration, Mean): 34.6 µg/mL
- concentration at 2 hr ([1]; male, CD1, mouse, plasma, 10 mg/kg, 10 mg/kg IP, 2 hr, read-out: Plasma Concentration, Mean): 47.9 µg/mL
- concentration at 2 hr ([1]; male, CD1, mouse, plasma, 10 mg/kg, 10 mg/kg IP, 2 hr, read-out: Plasma Concentration, individual animal): 53.6 µg/mL
- concentration at 4 hr ([1]; male, CD1, mouse, plasma, 10 mg/kg, 10 mg/kg IP, 4 hr, read-out: Plasma Concentration, Mean): 50.9 µg/mL
- concentration at 8 hr ([1]; male, CD1, mouse, plasma, 10 mg/kg, 10 mg/kg IP, 8 hr, read-out: Plasma Concentration, Mean): 28.4 µg/mL
- concentration at 8 hr ([1]; male, CD1, mouse, plasma, 10 mg/kg, 10 mg/kg IP, 8 hr, read-out: Plasma Concentration, individual animal): 35.1 µg/mL
- concentration at 24 hr ([1]; male, CD1, mouse, plasma, 10 mg/kg, 10 mg/kg IP, 24 hr, average of two values): 0.0997 µg/mL
- concentration at 0.08 hr ([1]; male, CD1, mouse, plasma, 50 mg/kg, 50 mg/kg IP, 0.08 hr, read-out: Plasma Concentration, Mean): 79.6 µg/mL
- concentration at 0.08 hr ([1]; male, CD1, mouse, plasma, 50 mg/kg, 50 mg/kg IP, 0.08 hr, read-out: Plasma Concentration, individual animal): 89 µg/mL
- concentration at 0.25 hr ([1]; male, CD1, mouse, plasma, 50 mg/kg, 50 mg/kg IP, 0.25 hr, read-out: Plasma Concentration, Mean): 129 µg/mL
- concentration at 0.5 hr ([1]; male, CD1, mouse, plasma, 50 mg/kg, 50 mg/kg IP, 0.5 hr, read-out: Plasma Concentration, Mean): 94 µg/mL
- concentration at 1 hr ([1]; male, CD1, mouse, plasma, 50 mg/kg, 50 mg/kg IP, 1 hr, read-out: Plasma Concentration, Mean): 228 µg/mL
- concentration at 1 hr ([1]; male, CD1, mouse, plasma, 50 mg/kg, 50 mg/kg IP, 1 hr, read-out: Plasma Concentration, individual animal): 229 µg/mL
- concentration at 2 hr ([1]; male, CD1, mouse, plasma, 50 mg/kg, 50 mg/kg IP, 2 hr, read-out: Plasma Concentration, Mean): 175 µg/mL
- concentration at 4 hr ([1]; male, CD1, mouse, plasma, 50 mg/kg, 50 mg/kg IP, 4 hr, read-out: Plasma Concentration, Mean): 116 µg/mL
- concentration at 4 hr ([1]; male, CD1, mouse, plasma, 50 mg/kg, 50 mg/kg IP, 4 hr, read-out: Plasma Concentration, individual animal): 128 µg/mL
- concentration at 8 hr ([1]; male, CD1, mouse, plasma, 50 mg/kg, 50 mg/kg IP, 8 hr, read-out: Plasma Concentration, Mean): 90.1 µg/mL
- concentration at 8 hr ([1]; male, CD1, mouse, plasma, 50 mg/kg, 50 mg/kg IP, 8 hr, read-out: Plasma Concentration, individual animal): 102 µg/mL
- concentration at 24 hr ([1]; male, CD1, mouse, plasma, 50 mg/kg, 50 mg/kg IP, 24 hr): 0.96 µg/mL
- AUC(0-t) [1, 3]: 558 µg·h/mL
- Cmax [1, 3]: 50.9 µg/mL
- Tmax [1, 3]: 4 h
- AUC(0-inf) [1, 4]: 1770 µg·h/mL
- AUC(0-t) [1, 4]: 1760 µg·h/mL
- Cmax [1, 4]: 228 µg/mL
- Tmax [1, 4]: 1 h
- thermal stability of HDAC8 in CETSA (HDAC8; listed as UPHH171): increased thermal stability
- thermal stability of HDAC8 in CETSA (HDAC8; listed as UPHH-00171): increase in thermal stability
- survival in zfAKI assay [2]: increase survival

From patent US12606557B2, “Substituted indoles with inhibitory activity” (UNIVERSITY OF PITTSBURGH—OF THE COMMONWEALTH SYSTEM OF …, priority 2020, dated 2026)
